Data on 28 compounds can be found in patent US5495046A, “Alkoxyphenylalkylamine derivatives” (Taisho Pharmaceutical Co., Ltd., priority 1991, dated 1996).

One test addresses sigma receptor (Rattus norvegicus, UniProt Q9R0C9). As to the kind of experiment: biochemical. The format is binding, rat (male Wistar). As for the experimental part: (§1) Receptor Binding Experiment
(§2) As test animals, male Wistar rats were used.
(§3) As a [^3 H]-labeled ligand, (+)[^3 H]3-PPP [3-(3-hydroxyphenyl)-N-n-propylpiperidine] was used for sigma receptor, while (-)[^3 H] sulpiride was used for D2 receptor.
(§4) Binding reactions with the use of these [^3 H]-labeled ligands were performed respectively in accordance with the following methods (1) and (2) described in Molecular Pharmacology, 32, p. 772 (1987) and Journal of Pharmacy and Pharmacology, 32, p. 820 (1987).
(1) (+) [^3 H] 3-PPP binding: A membrane preparation obtained from the whole brain of rat, (+) [^3 H] 3-PPP and a test drug were reacted in a 50 mM Tris hydrochloride buffer (pH 8.0) at 21° C. for 90 minutes.
(§5) After the completion of each reaction, the reaction mixture was filtered under sucking onto a glass filter (GF/B) and the radioactivity of the filter paper was measured with a liquid scintillation spectrometer.
The data obtained by reacting in the presence of 10 μM (+) 3-PPP and 10 μM (-) thiapride were regarded respectively as the nonspecific binding of (+) [^3 H] 3-PPP and (-) [^3 H] sulpiride. Then the difference between the total binding and the nonspecific binding was referred to as the specific binding.

The next test deals with D2 receptor (Rattus norvegicus, UniProt P61169). Kind of test: Receptor binding experiment: (-)[3H] sulpiride binding. On the set-up: species or system rat (male Wistar). The protocol: as §1, §2, §3, §4
(2) (-) [^3 H] sulpiride binding: A membrane preparation obtained from the corpus striatum of rat, (-) [^3 H] sulpiride and a test drug were reacted in a 50 mM Tris hydrochloride buffer (pH 7.7) at 37° C. for 10 minutes.
as §5
The data obtained by reacting in the presence of 10 μM (+) 3-PPP and 10 μM (-) thiapride were regarded respectively as the nonspecific binding of (+) [^3 H] 3-PPP and (-) [^3 H] sulpiride. Then the difference between the total binding and the nonspecific binding was referred to as the specific binding. The [^3 H]-labeled ligand at a definite concentration and the test drug at various concentrations were reacted under the conditions as specified in the above (1) or (2) to thereby give an inhibition curve.

Test [1] has as its system (+) SKF 10047-induced abnormal behaviors. As to the kind of experiment: Antagonism against (+) SKF 10047-induced abnormal behaviors. The format is in vivo, ICR male mice. The conditions noted are these: Mus musculus. The protocol: Examination on Antagonism Against (+) SKF 10047-induced Abnormal Behaviors
Preparations were formulated by dissolving 10 mg of each test drug in 1 ml of dimethylsulfoxide, diluting with physiological saline to a concentration of […], and further diluting the obtained solution to 0.01 and 0.001 mg/kg (administration dose: 0.1 ml per 10 g body weight of mouse).
The invention compound A, the comparative drug AA and Rimcazole were each orally administered in doses of 0.03, 0.1, 0.3, 1.0, 3.0 and 10.0 mg/kg. Preparations were formulated by suspending in a 5% solution of acacia.
(+) SKF10047 [(+)-N-allylnormetazocine hydrochloride; manufactured by Sigma] was intraperitoneally administered in a dose of 30 mg/kg. The preparation was formulated by dissolving in physiological saline.
As test animals, ICR male mice (Nippon Charles River) aged 4 to 5 weeks were used. Each group had 10 animals.
Each animal was introduced into a transparent acrylic resin cage (24 cm in length×17.5 cm in width×12 cm in height) and allowed to fully adapt to the environment. 35 minutes after the administration of a preparation of a test drug, (+) SKF10047 was administered. […]] were evaluated for 40 minutes at intervals of 5 minutes and the ED25 (mg/kg) was determined.

Setting [2] is: (+)[3H]3-PPP, rat whole brain membrane, pH 8.0, 21° C., 90 minutes.
Where [3] appears, read: read-out: 50% inhibitory concentration (IC50), D2, (-)[3H] sulpiride, rat corpus striatum membrane, pH 7.7, 37° C., 10 minutes.
Setting [4] is: read-out: 50% inhibitory concentration (IC50), Sigma, (+)[3H]3-PPP, rat whole brain membrane, pH 8.0, 21° C., 90 minutes.
Setting [5] is: (-)[3H] sulpiride, rat corpus striatum membrane, pH 7.7, 37° C., 10 minutes.

SMILES strings stand for the structures. Where a name gives a salt, the structure may show the parent alone. Read-outs that look alike come from different tables or passages of the source.

Sequence of D2 receptor (P61169 whole entry): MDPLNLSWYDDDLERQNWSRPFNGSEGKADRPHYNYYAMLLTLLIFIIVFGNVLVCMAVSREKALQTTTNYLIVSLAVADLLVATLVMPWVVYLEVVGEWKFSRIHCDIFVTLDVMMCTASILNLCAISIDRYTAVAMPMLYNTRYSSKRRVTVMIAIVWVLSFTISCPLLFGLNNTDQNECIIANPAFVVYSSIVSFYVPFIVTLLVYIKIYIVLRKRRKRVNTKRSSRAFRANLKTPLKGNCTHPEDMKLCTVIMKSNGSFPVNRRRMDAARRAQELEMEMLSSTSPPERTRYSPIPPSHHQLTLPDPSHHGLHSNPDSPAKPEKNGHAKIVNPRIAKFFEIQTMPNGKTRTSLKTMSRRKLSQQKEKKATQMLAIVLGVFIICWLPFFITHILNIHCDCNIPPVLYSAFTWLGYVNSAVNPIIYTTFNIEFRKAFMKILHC
Sequence of sigma receptor (Q9R0C9 whole entry): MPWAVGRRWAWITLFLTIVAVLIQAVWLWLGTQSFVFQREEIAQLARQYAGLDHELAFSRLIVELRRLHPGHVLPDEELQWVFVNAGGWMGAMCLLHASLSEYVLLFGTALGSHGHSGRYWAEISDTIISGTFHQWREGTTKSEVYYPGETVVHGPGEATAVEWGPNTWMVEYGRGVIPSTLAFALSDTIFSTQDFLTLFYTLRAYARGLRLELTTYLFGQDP

In turn, `CCCN1CCCC(c2cccc(O)c2)C1` (single isomer, unassigned) [Compound 3-PPP, 3-(3-hydroxyphenyl)-N-n-propylpiperidine, reference compound] came in with an IC50 on sigma receptor (setting [2]) of 24.3 nM.

Turning to `CCCN(CCC)CCc1cc(Cl)ccc1OCCc1ccccc1.O=C(O)C(=O)O` [A, N,N-Di-n-propyl-2-[5-chloro-2-(2-phenylethoxy)phenyl]ethylamine oxalate], the IC50 at D2 receptor (setting [3]) was 112 nM; on sigma receptor (setting [4]), 7.21 nM. Also, in test [1] (po), the ED25 was found to be 235 µg/kg.

Take `COc1ccc(CCN(C)C)cc1OCc1ccccc1.Cl` [AA, N,N-dimethyl-2-(4-methoxy-3-benzyloxyphenyl)ethylamine hydrochloride, reference compound]: the IC50 at D2 receptor was found to be 40800 nM; against sigma receptor it was 94.4 nM. The compound also registered an ED25 in test [1] (po) of 23600 µg/kg.

As to `CCCN(CCC)CCCc1cc(Cl)ccc1OCCc1ccccc1` [B, N,N-Di-n-propyl-3-[5-chloro-2-(2-phenylethoxy)phenyl]propylamine oxalate], the IC50 on D2 receptor (setting [5]) was over 1000 nM; at sigma receptor (setting [2]) it was 28.9 nM.

`CCCN(CCC)CCCCc1cc(Cl)ccc1OCCc1ccccc1` [C, N,N-Di-n-propyl-4-[5-chloro-2-(2-phenylethoxy)phenyl]butylamine oxalate] registered an IC50 on sigma receptor (setting [2]) of 26.4 nM.

For the compound `CCCN(CCC)CCc1ccc(Cl)cc1OCCc1ccccc1` [D, N,N-Di-n-propyl-2-[4-chloro-2-(2-phenylethoxy)phenyl]ethylamine hydrochloride], the values for the IC50 on D2 receptor and on sigma receptor (setting [4]) were 1450 nM and 17.9 nM, respectively.

Consider `CCCN(CCC)CCc1cc(Br)ccc1OCCc1ccccc1` [E, N,N-Di-n-propyl-2-[5-bromo-2-(2-phenylethoxy)phenyl]ethylamine oxalate], for which the IC50 was determined as 169 nM on D2 receptor (setting [3]) and 11.1 nM at sigma receptor (setting [4]).

For the compound `CCCN(CCC)CCCc1cc(Br)ccc1OCCc1ccccc1` [F, N,N-Di-n-propyl-3-[5-bromo-2-(2-phenylethoxy)phenyl]propylamine oxalate], the IC50 on D2 receptor (setting [3]) is 438 nM; on sigma receptor (setting [4]), 10.9 nM.

Consider `CCCN(CCC)CCc1cc(F)ccc1OCCc1ccccc1` [G, N,N-Di-n-propyl-2-[5-fluoro-2-(2-phenylethoxy)phenyl]ethylamine hydrochloride], for which the values for the IC50 at D2 receptor and against sigma receptor were 1910 nM and 13.3 nM, respectively.

On to `CCCN(CCC)CCc1cccc(F)c1OCCc1ccccc1` [H, N,N-Di-n-propyl-2-[3-fluoro-2-(2-phenylethoxy)phenyl]ethylamine oxalate], for which the IC50 came out at 3520 nM at D2 receptor and 21.6 nM against sigma receptor.

Consider `CCCN(CCC)CCc1ccc(OC)c(OCCc2ccccc2)c1.O=C(O)C(=O)O` [I, N,N-Di-n-propyl-2-[4-methoxy-3-(2-phenylethoxy)phenyl]ethylamine oxalate], for which, at D2 receptor, the IC50 is over 1000 nM. This compound also yielded an ED25 in test [1] (po) of 0.8 µg/kg.

Take `CCCN(CCC)CCCc1ccc(OC)c(OCCc2ccccc2)c1.O=C(O)C(=O)O` [J, N,N-Di-n-propyl-3-[4-methoxy-3-(2-phenylethoxy)phenyl]propylamine oxalate]: the IC50 worked out at 950 nM on D2 receptor (setting [3]) and 0.984 nM against sigma receptor (setting [2]). The ED25 in test [1] (oral, 35 minutes before (+) SKF10047 30 mg/kg i.p., stereotypy scores for 40 minutes at intervals of 5 minutes, read-out: ED25) came to 2.63 µg/kg.

As to `CCCN(CCC)CCc1ccc(OC)c(OCCCc2ccccc2)c1` [K, N,N-Di-n-propyl-2-[4-methoxy-3-(3-phenylpropoxy)phenyl]ethylamine oxalate], the IC50 on sigma receptor (setting [4]) turned out to be 4.7 nM.

Take `COc1ccc(CCN2CCN(c3ccccc3)CC2)cc1OCCc1ccccc1` [L, N-2-[4-Methoxy-3-(2-phenylethoxy)phenyl]ethyl-N'-phenylpiperazine oxalate]: the IC50 on D2 receptor (setting [3]) turned out to be 183 nM; at sigma receptor (setting [4]), 33 nM.

For `CCCN(CCC)CCc1ccc(O)c(OCCc2ccccc2)c1` [M, N,N-Di-n-propyl-2-[4-hydroxy-3-(2-phenylethoxy)phenyl]ethylamine hydrochloride], the IC50 on D2 receptor is 2500 nM; at sigma receptor (setting [4]), 3.09 nM.

For the compound `CCCN(CCC)CCc1ccc(OC)c(OCCc2ccc(F)cc2)c1` [N, N,N-Di-n-propyl-2-[4-methoxy-3-[2-(4-fluorophenyl)ethoxy]phenyl]ethylaminehydrochloride], the figures for the IC50 on D2 receptor (setting [5]) and against sigma receptor were over 10000 nM and 1.03 nM, respectively.

Turning to `CCCN(CCC)CCc1ccc(OC)c(OCCc2cccc(Cl)c2)c1` [O, N,N-Di-n-propyl-2-[4-methoxy-3-[2-(3-chlorophenyl)ethoxy]phenyl]ethylamineoxalate], the values for the IC50 at D2 receptor (setting [5]) and at sigma receptor (setting [4]) were 6600 nM and 1.49 nM, respectively.

In the case of `CCCN(CCC)CCc1ccc(OC)c(OCCc2ccc(OC)cc2)c1` [P, N,N-Di-n-propyl-2-[4-methoxy-3-[2-(4-methoxyphenyl)ethoxy]phenyl]ethylamine oxalate], the IC50 is 4990 nM on D2 receptor and 1.03 nM on sigma receptor.

As for `CCCN(CCC)CCc1ccc(OC)c(OCCc2cccs2)c1` [Q, N,N-Di-n-propyl-2-[4-methoxy-3-[2-(2-thienyl)ethoxy]phenyl]ethylamine hydrochloride], the IC50 on D2 receptor is over 10000 nM; on sigma receptor (setting [4]), 9.35 nM.

As for `CCCN(CCC)CCc1ccc(OCCc2ccccc2)c(OC)c1` [R, N,N-Di-n-propyl-2-[3-methoxy-4-(2-phenylethoxy)phenyl]ethylamine oxalate], the IC50 at D2 receptor is over 10000 nM; at sigma receptor it was 11.5 nM.

Turning to `CCCN(CCCO)CCc1ccc(OC)c(OCCc2ccccc2)c1` [S, N-n-propyl-N-3-hydroxypropyl-2-[4-methoxy-3-(2-phenylethoxy)phenyl]ethylamine oxalate], the IC50 at D2 receptor (setting [5]) was over 10000 nM; at sigma receptor (setting [2]), 18.5 nM.

Consider `CCCN(CCC)CCc1cccc(OC)c1OCCc1ccccc1.O=C(O)C(=O)O` [T, N,N-Di-n-propyl-2-[3-methoxy-2-(2-phenylethoxy)phenyl]ethylamine oxalate], for which the results for the IC50 on D2 receptor and on sigma receptor (setting [4]) were over 10000 nM and 2.71 nM, respectively. In test [1] (po), this compound had an ED25 of 1.7 µg/kg.

As to `CCCN(CCC)CCCc1cccc(OC)c1OCCc1ccccc1` [U, N,N-Di-n-propyl-3-[3-methoxy-2-(2-phenylethoxy)phenyl]propylamine oxalate], the IC50 against sigma receptor (setting [2]) was determined as 12.5 nM.

`CCCN(CCC)CCc1cccc(OC)c1OCCCc1ccccc1` [V, N,N-Di-n-propyl-2-[3-methoxy-2-(3-phenylpropoxy)phenyl]ethylamine oxalate] gave an IC50 on sigma receptor of 1.65 nM.

At D2 receptor, `COc1cccc(CCN2CCCC2)c1OCCc1ccccc1` [W, N-2-[3-Methoxy-2-(2-phenylethoxy)phenyl]ethylpyrrolidine oxalate] displayed an IC50 of 5350 nM.

Turning to `CCCN(CCC)CCc1cc(OC)ccc1OCCc1ccccc1` [X, N,N-Di-n-propyl-2-[5-methoxy-2-(2-phenylethoxy)phenyl]ethylamine hydrochloride], the IC50 is 791 nM at D2 receptor (setting [3]) and 7.06 nM at sigma receptor (setting [4]).

Take `CCCN(CCC)CCc1ccc(OC)cc1OCCc1ccccc1` [Y, N,N-Di-n-propyl-2-[4-methoxy-2-(2-phenylethoxy)phenyl]ethylamine oxalate]: the results for the IC50 on D2 receptor and at sigma receptor (setting [4]) were 2350 nM and 6.6 nM, respectively.

Take `CCCN(CCC)CCc1ccc(OCCc2ccccc2)cc1OC` [Z, N,N-Di-n-propyl-2-[2-methoxy-4-(2-phenylethoxy)phenyl]ethylamine oxalate]: the figures for the IC50 on D2 receptor and on sigma receptor (setting [4]) were 9180 nM and 6.83 nM, respectively.
